Experiment: xn = mol fraction of the nth substance listed
Details: Liquid, Vibrating tube method

CCCCCCCO [heptan-1-ol] + CCCCCCC
mass density [kg/m3]
Details	x1 = 0.1493	x1 = 0.3215	x1 = 0.5226	x1 = 0.6698	x1 = 0.8469	x1 = 1
298.15 K, 100 kPa	699.7	723.4	751.3	772.6	804.4	818.7
298.15 K, 1000 kPa	700.6	724.2	752.1	773.3	805.1	819.3
298.15 K, 5000 kPa	704.1	727.6	755.2	776.2	807.8	821.9
298.15 K, 10000 kPa	708.4	731.6	759	779.7	811.1	824.9
298.15 K, 15000 kPa	712.4	735.4	762.6	783.2	814.2	828
298.15 K, 20000 kPa	716.2	739.1	765.9	786.3	817.2	830.8
298.15 K, 25000 kPa	719.8	742.4	769.1	789.4	820	833.5
298.15 K, 30000 kPa	723.3	745.8	772.3	792.5	822.8	836.3
298.15 K, 35000 kPa	726.5	748.9	775.3	795.3	825.4	838.8
298.15 K, 40000 kPa	729.7	751.9	778.2	798	828.1	841.3
298.15 K, 45000 kPa	732.8	754.9	781	800.7	830.6	843.8
298.15 K, 50000 kPa	735.6	757.7	783.6	803.3	833	846.2
298.15 K, 55000 kPa	738.5	760.5	786.3	805.9	835.4	848.5
298.15 K, 60000 kPa	741.2	763.2	788.8	808.3	837.7	850.8
298.15 K, 65000 kPa	743.9	765.7	791.3	810.7	839.9	853
298.15 K, 70000 kPa	746.5	768.2	793.7	813.1	842.2	855.2
298.15 K, 80000 kPa	751.4	773	798.4	817.6	846.4	859.4
298.15 K, 90000 kPa	756.2	777.7	802.8	821.9	850.6	863.5
298.15 K, 100000 kPa	760.6	782	807	826	854.5	867.3
298.15 K, 110000 kPa	764.9	786.1	811.2	830	858.4	871.1
298.15 K, 120000 kPa	768.9	790.1	815	833.8	861.9	874.6
298.15 K, 130000 kPa	772.8	793.9	818.7	837.4	865.5	878.1
298.15 K, 140000 kPa	776.5	797.6	822.3	840.9	868.9	881.5
313.15 K, 100 kPa	686.8	711	739.3	760.9	793.4	808
313.15 K, 1000 kPa	687.7	711.8	740.1	761.7	794	808.6
313.15 K, 5000 kPa	691.7	715.5	743.5	764.9	796.9	811.4
313.15 K, 10000 kPa	696.4	719.9	747.6	768.7	800.4	814.7
313.15 K, 15000 kPa	700.8	724.1	751.5	772.3	803.8	817.9
313.15 K, 20000 kPa	704.9	728	755.2	775.8	807	821
313.15 K, 25000 kPa	708.6	731.5	758.4	778.9	809.9	823.8
313.15 K, 30000 kPa	712.6	735.3	762	782.3	813	826.8
313.15 K, 35000 kPa	716.1	738.7	765.2	785.4	815.9	829.5
313.15 K, 40000 kPa	719.4	741.9	768.2	788.3	818.5	832.1
313.15 K, 45000 kPa	722.7	745	771.2	791.1	821.2	834.7
313.15 K, 50000 kPa	725.8	748	774.1	793.9	823.8	837.2
313.15 K, 55000 kPa	728.8	750.9	776.9	796.6	826.4	839.7
313.15 K, 60000 kPa	731.8	753.8	779.6	799.2	828.8	842.1
313.15 K, 65000 kPa	734.6	756.5	782.2	801.8	831.2	844.4
313.15 K, 70000 kPa	737.3	759.1	784.8	804.2	833.6	846.7
313.15 K, 80000 kPa	742.5	764.2	789.6	808.9	838	851.1
313.15 K, 90000 kPa	747.5	769	794.3	813.5	842.4	855.3
313.15 K, 100000 kPa	752.1	773.6	798.7	817.7	846.4	859.3
313.15 K, 110000 kPa	756.6	778	803	821.9	850.4	863.2
313.15 K, 120000 kPa	760.8	782.1	807	825.8	854.2	867
313.15 K, 130000 kPa	765	786.2	810.9	829.7	857.9	870.6
313.15 K, 140000 kPa	768.9	790.1	814.7	833.4	861.5	874.2
333.15 K, 100 kPa	669.3	693.9	722.8	745	778	793.3
333.15 K, 1000 kPa	670.5	694.9	723.7	745.8	778.8	794
333.15 K, 5000 kPa	675.1	699.1	727.6	749.5	782	797.1
333.15 K, 10000 kPa	680.5	704.1	732.1	753.7	785.9	800.7
333.15 K, 15000 kPa	685.6	708.9	736.5	757.8	789.7	804.3
333.15 K, 20000 kPa	690.2	713.2	740.5	761.7	793.1	807.7
333.15 K, 25000 kPa	694.5	717.3	744.4	765.3	796.5	810.8
333.15 K, 30000 kPa	698.8	721.2	748.1	768.8	799.7	813.9
333.15 K, 35000 kPa	702.7	725	751.6	772.1	802.8	816.9
333.15 K, 40000 kPa	706.4	728.5	755	775.3	805.8	819.8
333.15 K, 45000 kPa	710	731.9	758.1	778.3	808.7	822.4
333.15 K, 50000 kPa	713.5	735.2	761.3	781.4	811.5	825.2
333.15 K, 55000 kPa	716.7	738.3	764.3	784.2	814.2	827.8
333.15 K, 60000 kPa	719.9	741.3	767.2	787	816.8	830.3
333.15 K, 65000 kPa	723	744.3	770	789.8	819.4	832.9
333.15 K, 70000 kPa	726	747.2	772.8	792.4	821.9	835.3
333.15 K, 80000 kPa	731.6	752.6	778	797.4	826.7	839.9
333.15 K, 90000 kPa	737	757.8	783	802.3	831.3	844.5
333.15 K, 100000 kPa	742	762.6	787.7	806.8	835.6	848.7
333.15 K, 110000 kPa	746.8	767.3	792.2	811.2	839.8	852.8
333.15 K, 120000 kPa	751.3	771.6	796.4	815.4	843.8	856.8
333.15 K, 130000 kPa	755.6	775.8	800.6	819.4	847.7	860.5
333.15 K, 140000 kPa	759.8	–	–	–	–	–

From the NIST ThermoML archive (doi:10.1016/j.jct.2013.05.051)
